Data taken from ChEMBL document CHEMBL5226321, “Ivermectin: A Promising Therapeutic for Fighting Malaria. Current Status and Perspective” (J Med Chem, 2021).
In brackets after ≈: the same amount, converted by molar mass.

Key:
Anopheles gambiae [1] = assay: Insecticidal in Anopheles gambiae G3 assessed as lethal concentration fed with compound treated human blood at 150 microg/kg administered once; assay type: functional; settings: dose 150 µg/kg
Aedes aegypti = assay: Insecticidal in Aedes aegypti larvae measured after 48 hrs; assay type: functional
Anopheles stephensi = assay: Insecticidal in Anopheles stephensi larvae measured after 48 hrs; assay type: functional
Culex pipiens = assay: Insecticidal in Culex pipiens larvae measured after 48 hrs; assay type: functional
Anopheles gambiae [2] = assay: Insecticidal in Anopheles gambiae G3 assessed as sublethal dose re-blood fed on human arm; assay type: functional
Huh-7 [3] = assay: Antimalarial activity against liver stage Plasmodium berghei infected in human Huh-7 cells assessed as inhibition by bioluminescence assay; assay type: functional, cell-based
Plasmodium falciparum [4] = assay: Antimalarial activity against asexual blood stage mefloquine-resistant Plasmodium falciparum Dd2 assessed as parasite growth inhibition by SYBR Green staining based fluorescence analysis; assay type: functional, organism-based
Plasmodium falciparum [5] = assay: Antimalarial activity against Plasmodium falciparum late stage IV-V gametocytes assessed as parasite growth inhibition incubated for 48 hrs by BacTiterGlo assay; assay type: functional, organism-based
Plasmodium falciparum [6] = assay: Antimalarial activity against asexual blood stage Plasmodium falciparum assessed as parasite growth inhibition incubated for 72 hrs by HRP2 - ELISA; assay type: functional, organism-based
Plasmodium falciparum [7] = assay: Antiplasmodial activity against asexual blood stage Plasmodium falciparum 3d7 assessed as parasite growth inhibition incubated for 48 hrs by bioluminescence assay; assay type: functional, organism-based
Huh-7 [8] = assay: Antiplasmodial activity against liver stage Plasmodium berghei infected in human Huh-7 cells assessed as inhibition of parasite infection incubated for 48 hrs by bioluminescence assay; assay type: functional, cell-based
Plasmodium falciparum [9] = assay: Antimalarial activity against asexual blood stage chloroquine-sensitive Plasmodium falciparum 3d7 assessed as parasite growth inhibition by SYBR Green staining based fluorescence analysis; assay type: functional, organism-based
[10] = Antimalarial activity against Plasmodium cynomolgi infected in rhesus macaque hepatocytes assessed as inhibition of liver-stage schizonts by Giemsa staining based microscopic analysis; assay type: functional, cell-based, Macaca mulatta; settings: hepatocyte
Plasmodium vivax = assay: Antimalarial activity against Plasmodium vivax assessed as inhibition of sporogony in Anopheles sp. mosquito fed with blood containing plasma isolated from compound treated parasite-infected human observed after 7 days; assay type: functional, organism-based
Plasmodium falciparum [11] = assay: Antimalarial activity against asexual blood stage chloroquine-resistant Plasmodium falciparum Dd2 assessed as parasite growth inhibition by SYBR Green staining based fluorescence analysis; assay type: functional, organism-based

For `C=C(C)[C@H]1C(=O)c2c3c(cc4c5c(n1c24)C[C@@]1(C)C5CC[C@H]2[C@](C)(/C=C/C=C(\C)C(=O)NC(C)(C)C)[C@@H](O)CC[C@@]21C)C1=CC(C)(C)OC(C)(C)C1[C@@H]3O` (some centres not stated), which LC50 (Anopheles gambiae [1]) is on record?
The LC50 was 0.76 µg/mL (≈ 1.03 µM).

For `CO[C@H]1C[C@H](O[C@H]2[C@H](C)O[C@@H](O[C@@H]3/C(C)=C/C[C@@H]4C[C@@H](C[C@]5(C=C[C@H](C)[C@@H](C(C)C)O5)O4)OC(=O)[C@@H]4C=C(C)[C@@H](O)[C@H]5OC/C(=C\C=C\[C@@H]3C)[C@]54O)C[C@@H]2OC)O[C@@H](C)[C@@H]1O` [ABAMECTIN COMPONENT B1B], which LC50 (Aedes aegypti) is on record?
Its LC50 is 10.4 ppb.

And the LC50 (Anopheles stephensi)?
The LC50 was 2.9 ppb.

What about the LC50 (Culex pipiens) of the same molecule?
Its LC50 is 2.42 ppb.

With `CCN(Cc1ccc(Cl)nc1)/C(=C/[N+](=O)[O-])NC` [NITENPYRAM] as the molecule, how does the LC50 (Anopheles gambiae [1]) read?
Its LC50 is 0.111 µg/mL (≈ 0.41 µM).

What about the LC25 (Anopheles gambiae [2]) of the same molecule?
Its LC25 is 0.07865 µg/mL (≈ 0.291 µM).

For `COc1cc(NC(C)CCCN)c2ncccc2c1` (configuration not stated) [PRIMAQUINE], which IC50 (Huh-7 [3]; Homo sapiens, Huh-7) is on record?
Its IC50 is 2.4 µM.

With IVERMECTIN as the molecule, how does the IC50 (Plasmodium falciparum [4]) read?
The IC50 was 1.92 µM.

And the IC50 (Plasmodium falciparum [5])?
The IC50 was 0.5 µM.

What about the IC50 (Plasmodium falciparum [6]) of the same molecule?
Its IC50 is 0.1 µM.

And the IC50 (Plasmodium falciparum [7])?
The IC50 was 1.56 µM.

What about the IC50 (Huh-7 [3]; huh-7) of the same molecule?
The IC50 was 2.1 µM.

And the IC50 (Huh-7 [8])?
Its IC50 is 2.1 µM.

What about the IC50 (Plasmodium falciparum [9]) of the same molecule?
Its IC50 is 1.56 µM.

What about the IC50 [10] of the same molecule?
Its IC50 is 10.4 µM.

What about the IC50 (Plasmodium vivax) of the same molecule?
The IC50 was 0.00568 µg/mL.

What about the IC50 (Plasmodium falciparum [11]) of the same molecule?
The IC50 was 2.85 µM.
